From US5744621A, “Irreversible HIV protease inhibitors, intermediates, compositions and processes for the preparation thereof” (Lucky Limited., priority 1992, dated 1998)
Where two headings read alike, the source gives them in different places.

Columns and labels:
HIV-1 = test: Anti-viral activity: syncytium formation (Sup T1) or reverse transcriptase assay (H9); assay type: cell-based; conditions: Human immunodeficiency virus 1, SUP-T1
Experimental: The anti-viral activity of the compounds of the present invention was determined by measuring the concentration of the compounds that inhibits the proliferation of HIV by 50%(IC50) through a survey for syncytium formation or reverse transcriptase assay.
1×10^5 cells of each of H9(ATCC HTB 176) and Sup T1 cell lines were added to the wells of a 24-well microtiter plate and various concentrations so the compounds of the present invention were added thereto. 200 TCID50 (200-fold of 50% tissue culture infection dose) of HIV-1 inoculum and rpmi-1640 medium(Sigma Chemical Co., U.S.A) were added successively to the wells and the plate was incubated at 37° C. In case of Sup T1, the number of syncytium formed was investigated after 3 to 9 days. IC50 of each compound was determined by measuring the concentration of inhibitor that can reduce the number of syncytium by 50% compared with those formed in the same condition without the inhibitor.
In case of H9, three-quarters(3/4) of the culture medium in volume was refreshed every 3 days; and 6 ml of the culture fluid was centrifuged at 1000 rpm for 10 minutes. To 5 ml of the resulting supernatant were added 2.5 ml of 30% polyethyleneglycol(PEG, M.W. 6000-8000) and 0.4M NaCl. The resulting solution was allowed to stand at 0° C. overnight to precipitate virus particles. The solution was centrifuged at 2000 rpm for 45 minutes, the supernatant was discarded therefrom and the precipitate was diluted with 20 μl of a reverse transcriptase suspension buffer(50 mM tris-HCl, pH 7.5, 1 mM dithiothreitol, 20% glycerol, 0.25M KCl and 0.25% Triton X-100). The resulting suspension was stored in an Effendorf tube at -70° C. until used. A procedure of freezing said virus suspension for 2 minutes in dry ice and thawing same at 37° C. for 2 minutes was repeated three times and the resulting suspension was centrifuged at 4° C. The resulting supernatant was used in carrying out the reverse transcriptase assay.
10 μl of the said viral suspension was added to a solution of: 10 μl of buffer solution(250 mM tris-HCl, pH 7.5, 37.5 mM MgCl2, 0.25% triton X-100), 1.2 μl of 200 mM dithiothreitol, 5 μl of 10 μM oligo(dT)-poly(A)(Boeringer Manheim, 12-18 oligomer), 1 μl(1 μCi) of ^3 H-TTP(Thymidinetri-phosphate) and 23.6 μl of water; and the resulting mixture was placed at 37° C. After 1 hour, the mixture was poured onto a WHATMAN DEB1 filter and the filter was washed three times with 5 ml of 2×SSC buffer solution(17.53 g of sodium chloride, 8.82 g of sodium citrate, pH 7.0, 1 liter of water) for about 10 minutes each time and twice with 95% ethanol for 10 seconds. The filter was put onto aluminium foil and dried with an infra-red lamp. The amount of radioactivity was counted using a liquid scintillation counter. IC50 of each compound was determined by measuring the concentration of inhibitor that can reduce the activity of reverse transcriptase by 50%.

[1] = Cytotoxicity in H9 or Sup T1 cells (trypan blue dye exclusion); assay type: cell-based; conditions: human
Experimental: To determine the cytotoxicity of the compounds of the present invention, 0.1 μM to 100 μM of the novel compounds were added to H9 cell or Sup T1 cell and the mixture was cultured on a rpmi-1640 medium at 37° C. The medium was refreshed every 3 days and the extent of cell proliferation was observed using Hemacytometer according to the trypan blue dye exclusion technique which is well known in the art. CT50 (i.e., concentration that causes death of cells by 50%) was determined. For reference, AZT(Burrows-Wellcome), A-75925 (Abbott, C2 symmetric compound) and Ro-31-8959(F. Hofmann-La Roche) were used as control compounds.

HIV-1 protease = target: T1, HIV-1 protease (Human immunodeficiency virus type 1 group M subtype B, UniProt P04585); test: Assay for inhibitory effect on HIV protease (residual enzyme activity, HPLC of substrate cleavage); assay type: biochemical; conditions: pH 5.5; for Ki / kinact: HIV-1 protease 2.6 nM; for Ki: inhibition constant; for kinact: rate constant of covalent bond formation, read-out: kina (converted); for kinact/KI: second order rate constant, HIV-1 protease, read-out: kina /KI (converted)
T1 construct: 2.6 nM of HIV-1 protease
Experimental: The inhibitory effect on HIV protease of the compounds of the present invention was determined by the following method.
To a buffer solution comprising 50 mM sodium acetate, pH 5.5, 1 mM dithiothreitol(DTT), 1 mM ethylenediaminetetraacetate (EDTA), 0.75M ammonium sulfate, 0.2M sodium chloride and 0.1% NP40(NONIDET P-40; Sigma Chemical Co., U.S.A.), were added various concentrations of a compound selected from Compound Nos. 1 to 92 to prepare a preincubation solution. Inhibition reaction was started with the addition of 2.6 nM of HIV-1 protease to the preincubation solution. Each 10 μl of the reaction solution was taken at a given time interval and added to 80 μl of assay solution containing 100 μM of reaction substrate in the same buffer solution as above to assay for the residual enzyme activity. In this context, an oligopeptide(KM =20 μM) consisting of 11 amino acids, i.e., Ser-Ile-Ala-Glu-(p-NO2)-Phe-Leu-Val-Arg-Ala-Lys-His, was used as a reaction substrate, which oligopeptide was to be cleaved in two by the breakage of amide bond between (P--NO2)-Phe and Leu upon the attack of HIV protease. The reaction rate was determined by subjecting the substrate before the reaction and the product after the reaction to HPLC separation and then measuring the relative amount of the product, using the strong absorbance of (p--NO2)-Phe at 280 nm. The amount of reduction in enzyme activity according to the elapsed time were measured and the natural logarithmic values(ln) of the measured amounts were plotted against time to obtain a linear graph and kobs was calculated from the slope of the linear graph.
The inhibition constant was calculated according to the following equation: [formula] wherein: kobs is a rate constant indicating the rate of reduction in enzyme activity according to the elapsed time under the presence of a given concentration of inhibitor,
kina is a rate constant indicating the rate of chemical reaction forming covalent bond between an enzyme and an inhibitor in Michaelis-Menten complex,
KI is an inhibition constant indicating the dissociation rate of Michaelis-Menten complex into an enzyme and an inhibitor, and
[I] means the inhibitor concentration.
The above equation is applicable to an experiment carried out under the condition in which the concentration of inhibitor is far higher than that of enzyme(Steady State Kinetic). […] The inhibition constants KI and kina and second order rate constant kina /KI were obtained by inputting the value of [E]/([E]+[EI]+[EI']) into KINSIM/FITSIM program. FIG. 1 exemplifies a result of the experiment determining the binding ratio of enzymes and inhibitors, which result was obtained by reacting the enzyme and the inhibitor in various concentration ratios for a sufficient time period(at least for 30 minutes), and then plotting the relative activity of the remaining enzyme against [conc. of inhibitor]/[conc. of enzyme].

[2] = concentration that causes death of cells by 50%, H9 or Sup T1 cells, 37° C, read-out: CT50 (the source's name)

Row | SMILES | IC50 (HIV-1) [nM] | CC50 [1, 2] [µM] | Ki (HIV-1 protease) [nM] | kinact (HIV-1 protease) [s⁻¹] | kinact/KI (HIV-1 protease) [M⁻¹ s⁻¹] | CC50 ([1]; h9 or sup t1 cells) [µM]
1 | CC(C)[C@H](NC(=O)OCc1ccccc1)C(=O)N[C@@H](Cc1ccccc1)[C@H]1O[C@H]1CNC(=O)[C@H](CC(N)=O)NC(=O)OCc1ccccc1 [compound 76, 4S-[N^1-[(N-benzyloxycarbonyl-L-asparaginyl)amino]]-[N^4-[(N-benzyloxycarbonyl-L-valinyl)amino]]-5-phenyl-(2S,3R)-(Z)-epoxypentane] | 1000 | > 100 | 2000 | 0.000767 | 383 | –
2 | CC[C@H](C)[C@H](NC(=O)C[C@@H]1O[C@@H]1[C@H](Cc1ccccc1)NC(=O)[C@H](CC(N)=O)NC(=O)c1ccc2ccccc2n1)C(=O)NO [compound 40] | 700 | > 100 | 33 | 0.00417 | 1270 | –
3 | CC[C@H](C)[C@H](NC(=O)C[C@@H]1O[C@@H]1[C@H](Cc1ccccc1)NC(=O)[C@@H](NC(=O)N(C)Cc1ccccn1)C(C)C)C(=O)OC [compound 35, N-{N-L-[[N,N-(2-pyridylmethyl)(methyl)-amino]carbonylvalinyl]amino-(4R,3S)-epoxy-6-phenyl-hexanoyl}-L-isoleucine methyl ester] | 1000 | > 100 | > 10000 | – | – | –
4 | NC(=O)C[C@H](NC(=O)OCc1ccccc1)C(=O)NC[C@@H]1O[C@@H]1[C@H](Cc1ccccc1)NC(=O)[C@H](CC(N)=O)NC(=O)OCc1ccccc1 [compound 72] | 500 | – | 110 | 0.00367 | 33300 | > 100
5 | CC(C)[C@@H](NC(=O)C[C@@H]1O[C@@H]1[C@H](Cc1ccccc1)NC(=O)[C@H](CC(N)=O)NC(=O)c1ccc2ccccc2n1)c1ccccc1 [compound 43] | 50 | > 100 | 3.2 | 0.0283 | 88300 | –
6 | NC(=O)C[C@H](NC(=O)c1ccc2ccccc2n1)C(=O)N[C@@H](Cc1ccccc1)[C@H]1O[C@H]1CCc1ccccc1 [compound 62, 2-L-(N-2-quinolinecarbonyl-L-asparaginyl)amino-(3R,4S)-epoxy-1,6-diphenylhexane] | 200 to 700 | > 100 | 130 | 0.00183 | 14200 | –
7 | CC(C)[C@H](CCc1ccccc1)NC(=O)C[C@@H]1O[C@@H]1[C@H](Cc1ccccc1)NC(=O)[C@H](CC(N)=O)NC(=O)c1ccc2ccccc2n1 [compound 44] | 300 | > 100 | 11 | 0.0417 | 3.83e+06 | –
8 | CC(C)[C@H](CCCc1ccccc1)NC(=O)C[C@@H]1O[C@@H]1[C@H](Cc1ccccc1)NC(=O)[C@H](CC(N)=O)NC(=O)c1ccc2ccccc2n1 [compound 45] | 200 | > 100 | 1.2 | 0.04 | 3.33e+07 | –
9 | CC(C)CC[C@@H]1O[C@@H]1[C@H](Cc1ccccc1)NC(=O)[C@H](CC(N)=O)NC(=O)c1ccc2ccccc2n1 [compound 70, 2-L-[N-(2-quinolinecarbonyl)-L-asparaginyl]amino-(3R,4S)-epoxy-7-methyl-1-phenyloctane] | 5000 | > 100 | 310 | 0.002 | 6500 | –
10 | CC(C)[C@H](NC(=O)N(C)Cc1ccccn1)C(=O)NC[C@@H]1O[C@@H]1[C@H](Cc1ccccc1)NC(=O)[C@@H](NC(=O)N(C)Cc1ccccn1)C(C)C [compound 80] | 500 | > 100 | 150 | 0.00533 | 35000 | –
11 | CC[C@H](C)[C@H](NC(=O)C[C@@H]1O[C@@H]1[C@H](Cc1ccccc1)NC(=O)[C@H](CC(N)=O)NC(=O)COc1cccc2ccccc12)C(=O)OC [compound 3] | 3000 | > 100 | 40 | 0.002 | 50000 | –
12 | CC[C@H](C)[C@H](NC(=O)C[C@@H]1O[C@@H]1[C@H](Cc1ccccc1)NC(=O)[C@H](CC(N)=O)NC(=O)c1ccc2ccccc2n1)C(=O)OC [compound 2, N-[5-L-[[N-(2-quinolinecarbonyl)-L-asparaginyl]amino]-epoxy-6-phenyl-hexanoyl]-L-isoleucine methyl ester] | 200 | > 100 | 18 | 0.00367 | 200000 | –
13 | CC(C)[C@H](NC(=O)OCc1ccccc1)C(=O)N[C@@H](Cc1ccccc1)[C@H]1O[C@H]1CNC(=O)OC(C)(C)C [compound 82, 4S-[N^1-(t-butoxycarbonyl)amino]-[N^4-[(N-benzyloxycarbonyl-L-valinyl)amino]]-5-phenyl-(2S,3R)-(Z)-epoxypentane] | 750 | > 10 | 450 | 0.0183 | 40000 | –
14 | CC(C)[C@H](Cc1ccccc1)NC(=O)C[C@@H]1O[C@@H]1[C@H](Cc1ccccc1)NC(=O)[C@H](CC(N)=O)NC(=O)c1ccc2ccccc2n1 [compound 42, [[(5S)-[N-(2-quinolinecarbonyl)-L-asparaginyl]amino]-(4R,3S)-epoxy-6-phenyl-1-hexanoyl]-[(2S)-[1-phenyl-3-methyl]butyl]amide] | 20 | > 100 | 0.8 | 0.0433 | 5.5e+07 | –
15 | CC(C)(C)NC(=O)[C@@H]1C[C@@H]2CCCC[C@@H]2CN1C[C@@H](O)[C@H](Cc1ccccc1)NC(=O)[C@H](CC(N)=O)NC(=O)c1ccc2ccccc2n1 [Ro-31-8959, reference compound] | 40 | – | – | – | – | > 100
